Reference: US5061794A, “Cephalosporin derivatives, and antibacterial agents” (priority 1986, dated 1991)
Converted amounts (≈) assume the structure as drawn. Read-outs that look alike come from different tables or passages of the source.

Key:
S. marcescens No. 16-2 = experiment: in vitro antibacterial activity, agar plate dilution method (MIC); format: cell-based; settings: Serratia marcescens, NO.162, 16 h
Experimental: (§1) The in vitro antibacterial activities of the compounds of the present invention against various microorganisms, were measured by the following agar plate dilution method. One platinum loopfull of each test microorganism incubated overnight in Mueller Hinton broth, was inoculated to Mueller Hinton agar (inoculum size: 10^6 CFU/ml). Such culture media containing various antibiotics in various concentrations were prepared. After incubation at 37° C. for 16 hours, the minimum inhibitory concentrations (MIC: μg/ml) were measured.

K. oxytoca GN10650 = experiment: as above; format: cell-based; settings: Klebsiella oxytoca, 10^6 CFU/ml
Experimental: as §1

E. cloacae 963 = experiment: as above; format: cell-based; settings: 10^6 CFU/ml
Experimental: as §1

P. vulgaris HX-19 = experiment: as above; format: cell-based; settings: Proteus vulgaris, HX19, 16 h, read-out: Minimum Inhibitory Concentration (MIC)
Experimental: as §1

E. coli GN5482 = experiment: as above; format: cell-based; settings: Escherichia coli, GN5482, 16 h
Experimental: as §1

S. marcescens IAM 1184 = experiment: as above; format: cell-based; settings: Serratia marcescens, IAM1184, 16 h, S. marcescens IAM 1184; 10^6 CFU/ml; read-out: Minimum Inhibitory Concentration (MIC)
Experimental: as §1

E. cloacae Nek 39 = experiment: as above; format: cell-based; settings: Enterobacter cloacae, NEK39, 16 h, read-out: Minimum Inhibitory Concentration (MIC), *E. cloacae Nek 39, lactamase-producing strain; 10^6 CFU/ml
Experimental: as §1

E. coli NIHJ JC2 = experiment: as above; format: cell-based; settings: Escherichia coli, NIHJJC2, 16 h, read-out: Minimum Inhibitory Concentration (MIC), E. coli NIHJ JC2, 10^6 CFU/ml, 37° C.
Experimental: as §1

S. aureus 209P NIHJ-JC1 = experiment: as above; format: cell-based; settings: Staphylococcus aureus, 16 h
Experimental: as §1

K. pneumoniae No. 42 = experiment: as above; format: cell-based; settings: Klebsiella pneumoniae, NO.42, 16 h, read-out: Minimum Inhibitory Concentration (MIC), *K. pneumoniae No. 42, lactamase-producing strain; 10^6 CFU/ml
Experimental: as §1

P. vulgaris No. 33 = experiment: as above; format: cell-based; settings: Proteus vulgaris, NO.33, 16 h, read-out: Minimum Inhibitory Concentration (MIC), *P. vulgaris No. 33, lactamase-producing strain; 10^6 CFU/ml
Experimental: as §1

K. pneumoniae PCI-602 = experiment: as above; format: cell-based; settings: Klebsiella pneumoniae, PCI602, 16 h, 10^6 CFU/ml
Experimental: as §1

Ps. cepacia 23 = experiment: as above; format: cell-based, Pseudomonas cepacia; settings: Burkholderia cepacia, 16 h; Ps. cepacia 23; 10^6 CFU/ml; read-out: Minimum Inhibitory Concentration (MIC)
Experimental: as §1

E. coli CSH(RE45) = experiment: microbe, parasite or virus in culture; format: cell-based; settings: Escherichia coli, 16 h, read-out: Minimum Inhibitory Concentration (MIC), *E. coli CSH(RE45), lactamase-producing strain; 10^6 CFU/ml
Experimental: as §1

E. coli CSH2 (RK1) = experiment: microbe, parasite or virus in culture; format: cell-based; settings: Escherichia coli, 16 h, read-out: Minimum Inhibitory Concentration (MIC), *E. coli CSH2 (RK1), lactamase-producing strain; 10^6 CFU/ml
Experimental: as §1

A. calcoaceticus No. 4 = experiment: in vitro antibacterial activity, agar plate dilution method (MIC); format: cell-based, Acinetobacter calcoaceticus; settings: Acinetobacter calcoaceticus, NO.4, 16 h, 10^6 CFU/ml
Experimental: as §1

Ps. aeruginosa IF03445 = experiment: as above; format: cell-based, Pseudomonas aeruginosa; settings: Pseudomonas aeruginosa, 10^6 CFU/ml
Experimental: as §1

Ps. aeruginosa AK 109 = experiment: as above; format: cell-based, Pseudomonas aeruginosa; settings: Pseudomonas aeruginosa, AK109, 16 h
Experimental: as §1

Ps. aeruginosa AKR17 = experiment: as above; format: cell-based, Pseudomonas aeruginosa; settings: Pseudomonas aeruginosa, 10^6 CFU/ml
Experimental: as §1

[1] = read-out: Minimum Inhibitory Concentration (MIC), *S. marcescens No. 16-2, lactamase-producing strain, 10^6 CFU/ml
[2] = GN10650, 16 h, read-out: Minimum Inhibitory Concentration (MIC), *K. oxytoca GN10650, lactamase-producing strain
[3] = Enterobacter cloacae, 16 h, E. cloacae 963, read-out: Minimum Inhibitory Concentration (MIC)
[4] = read-out: Minimum Inhibitory Concentration (MIC), *E. coli GN5482, lactamase-producing strain, 10^6 CFU/ml
[5] = read-out: Minimum Inhibitory Concentration (MIC)
[6] = read-out: Minimum Inhibitory Concentration (MIC), K. pneumoniae PCI-602
[7] = A. calcoaceticus No. 4, read-out: Minimum Inhibitory Concentration (MIC)
[8] = IF03445, 16 h, read-out: Minimum Inhibitory Concentration (MIC), Ps. aeruginosa IF03445
[9] = 16 h, Ps. aeruginosa AKR17, read-out: Minimum Inhibitory Concentration (MIC)
[10] = 16 h, *K. oxytoca GN10650, lactamase-producing strain, read-out: Minimum Inhibitory Concentration (MIC)
[11] = read-out: Minimum Inhibitory Concentration (MIC), A. calcoaceticus No. 4
[12] = read-out: Minimum Inhibitory Concentration (MIC), Ps. aeruginosa AK 109, 10^6 CFU/ml

Row | SMILES | MIC (S. marcescens No. 16-2; [1]) | MIC (K. oxytoca GN10650; [2]) | MIC (E. cloacae 963; [3]) | MIC (P. vulgaris HX-19; P. vulgaris HX-19, 10^6 CFU/ml) | MIC (E. coli GN5482; [4]) | MIC (S. marcescens IAM 1184) | MIC (E. cloacae Nek 39) | MIC (E. coli NIHJ JC2) | MIC (S. aureus 209P NIHJ-JC1; [5]) | MIC (K. pneumoniae No. 42) | MIC (P. vulgaris No. 33) | MIC (K. pneumoniae PCI-602; [6]) | MIC (Ps. cepacia 23) | MIC (E. coli CSH(RE45)) | MIC (E. coli CSH2 (RK1)) | MIC (Ps. aeruginosa IF03445; [8]) | MIC (Ps. aeruginosa AKR17; [9]) | MIC (E. coli GN5482; [5]) | MIC (A. calcoaceticus No. 4; [11]) | MIC (Ps. aeruginosa AK 109; [12]) | also measured
1 | Nc1nc(C(=NOC2CCCC2)C(=O)NC2C(=O)N3C(C(=O)O)=C(CSc4nc(C(=O)O)c(-c5ccc(O)c(O)c5)s4)CSC23)cs1 (centres unmarked) [Ex. 54, disodium 78-[2-(2-aminothiazol-4-yl)-2-cyclopentyloxyiminoacetamido]-3-[4-carboxylate-5-(3,4-dihydroxyphenyl)thiazol-2-yl]thiomethyl-3-cephem-4-carboxylate] | 1.56 µg/mL | 1.56 µg/mL | 0.1 µg/mL | < 0.006 µg/mL | 1.56 µg/mL | 0.05 µg/mL | 0.2 µg/mL | 1.56 µg/mL | 3.12 µg/mL | 0.1 µg/mL | 0.025 µg/mL | < 0.006 µg/mL | < 0.006 µg/mL | 3.12 µg/mL | 0.1 µg/mL | 1.56 µg/mL | > 100 µg/mL |  |  |  | MIC (A. calcoaceticus No. 4; [7]): 0.2 µg/mL; MIC (Ps. aeruginosa AK 109; [5]): 12.5 µg/mL
2 | C=CCON=C(C(=O)NC1C(=O)N2C(C(=O)O)=C(CSc3nc(C(=O)O)c(-c4ccc(O)c(O)c4)s3)CSC12)c1csc(N)n1 (centres unmarked) [Ex. 55, disodium 78-[2-allyloxyimino-2-(2-aminothiazol-4-yl)acetamido]-3-[4-carboxylate-5-(3,4-dihydroxyphenyl)thiazol-2-yl]thiomethyl-3-cephem-4-carboxylate] |  |  | 0.1 µg/mL | < 0.006 µg/mL |  | 0.1 µg/mL | 0.39 µg/mL | 0.78 µg/mL |  | 0.1 µg/mL | 0.025 µg/mL | < 0.006 µg/mL | 0.025 µg/mL | 0.1 µg/mL | 0.0125 µg/mL | 3.12 µg/mL | > 100 µg/mL | 3.12 µg/mL | 0.1 µg/mL | 6.25 µg/mL | MIC (S. marcescens No. 16-2; [5]): 3.12 µg/mL; MIC (K. oxytoca GN10650; [10]): 50 µg/mL; MIC (S. aureus 209P NIHJ-JC1; read-out: Minimum Inhibitory Concentration (MIC), S. aureus 209P NIHJ-JC1, 10^6 CFU/ml, 37° C., 16 hours): 6.25 µg/mL
3 | Nc1nc(C(=NOCc2ccccc2)C(=O)NC2C(=O)N3C(C(=O)O)=C(CSc4nc(C(=O)O)c(-c5ccc(O)c(O)c5)s4)CSC23)cs1 (centres unmarked) [Ex. 57] | 6.25 µg/mL (≈ 8.44 µM) |  |  | < 0.006 µg/mL |  | 0.1 µg/mL (≈ 0.135 µM) | 0.39 µg/mL (≈ 0.526 µM) | 0.78 µg/mL (≈ 1.05 µM) | 3.12 µg/mL (≈ 4.21 µM) | 0.1 µg/mL (≈ 0.135 µM) | 0.025 µg/mL (≈ 0.0337 µM) | < 0.006 µg/mL | < 0.006 µg/mL | 0.1 µg/mL (≈ 0.135 µM) | 0.0125 µg/mL (≈ 0.0169 µM) | 3.12 µg/mL (≈ 4.21 µM) | > 100 µg/mL | 3.12 µg/mL (≈ 4.21 µM) | 0.39 µg/mL (≈ 0.526 µM) | 6.25 µg/mL (≈ 8.44 µM) | MIC (K. oxytoca GN10650; [10]): 25 µg/mL (≈ 33.7 µM); MIC (E. cloacae 963; Enterobacter cloacae, 963, 16 h, read-out: Minimum Inhibitory Concentration (MIC), E. cloacae 963): 0.05 µg/mL (≈ 0.0675 µM)
4 | CC(=O)Oc1ccc(-c2nc(SCC3=C(C(=O)O)N4C(=O)C(NC(=O)C(=NOC(C)(C)C(=O)O)c5csc(N)n5)C4SC3)sc2CC(=O)O)cc1OC(C)=O (stereo not drawn) [Example 59 (II), trisodium 7β-[2-(2-aminothiazol-4-yl)-2-(1-carboxylate-1-methylethoxyimino)acetamido]-3-[4-(3,4-diacetoxyphenyl)-5-carboxylatemethylthiazol-2-yl]-thiomethyl-3-cephem-4-carboxylate] | 0.78 µg/mL | 0.2 µg/mL | 0.2 µg/mL | 0.025 µg/mL | 1.56 µg/mL | 0.2 µg/mL | 0.2 µg/mL | 3.12 µg/mL |  | 0.2 µg/mL | 0.05 µg/mL |  | < 0.006 µg/mL | 0.05 µg/mL | 0.025 µg/mL | 1.56 µg/mL |  |  |  | 1.56 µg/mL | MIC (S. aureus 209P NIHJ-JC1; S. aureus 209P NIHJ-JC1, 10^6 CFU/ml, 37° C., 16 hours, read-out: Minimum Inhibitory Concentration (MIC)): 50 µg/mL; MIC (K. pneumoniae PCI-602; K. pneumoniae PCI-602, read-out: Minimum Inhibitory Concentration (MIC)): 0.025 µg/mL; MIC (A. calcoaceticus No. 4; [7]): 0.2 µg/mL; MIC (Ps. aeruginosa AKR17; AKR17, 16 h, read-out: Minimum Inhibitory Concentration (MIC), Ps. aeruginosa AKR17): 1.56 µg/mL
5 | CON=C(C(=O)NC1C(=O)N2C(C(=O)O)=C(CSc3nc(-c4ccc(O)c(O)c4)c(CC(=O)O)s3)CSC12)c1csc(N)n1 (stereo not drawn) [compound 58, disodium 7β-[2-(2-aminothiazol-4-yl)-2-methoxyiminoacetamido]-3-[4-(3,4-dihydroxyphenyl)-5-carboxylatemethylthiazol-2-yl]thiomethyl-3-cephem-4-carboxylate] |  | 12.5 µg/mL | 0.1 µg/mL |  |  | 0.1 µg/mL | 1.56 µg/mL | 0.39 µg/mL | 12.5 µg/mL | 0.1 µg/mL | 0.025 µg/mL | < 0.006 µg/mL | 0.025 µg/mL | 0.39 µg/mL | 0.0125 µg/mL |  | > 100 µg/mL | 3.12 µg/mL | 0.39 µg/mL |  | MIC (S. marcescens No. 16-2; [5]): 3.12 µg/mL; MIC (P. vulgaris HX-19): 0.0125 µg/mL; MIC (Ps. aeruginosa IF03445; 16 h, Ps. aeruginosa IF03445, read-out: Minimum Inhibitory Concentration (MIC)): 25 µg/mL; MIC (Ps. aeruginosa AK 109; Ps. aeruginosa AK 109, 10^6 CFU/ml, read-out: Minimum Inhibitory Concentration (MIC)): > 100 µg/mL
